US9714245B2, “Carboline compounds usable in the treatment of neurodegenerative diseases” (ALZPROTECT, priority 2013, dated 2017)

Legend:
secreted Aβ1-42 = experiment: Aβ1-42 secretion by APP-transfected neuroblastoma cells (ELISA); type: cell-based; conditions: Homo sapiens, Neuroblastoma cell; SKNSH-SYSY APPWT cells; concentration decreasing secreted Aβ1-42 to 50% of basal amount
Experimental: (§1) Cell Cultures and Transfections to Test Activity on Aβ1-40 and Aβ1-42 Secretion
(§2) Human neuroblastoma cell line SKNSH-SYSY (ATCC® Catalog No. CRL-2266™), HEK (ATCC® CRL-1573™) and COS-1 (ATCC® CRL-1650™) cells were maintained in Dulbecco's modified Eagle medium (DMEM, GIBCO BRL) supplemented with 10% fetal calf serum, 2 mM L-glutamine, 1 mM non-essential amino acids, 50 units/ml penicillin/streptomycin (Invitrogen, France) in a 5% CO2 humidified incubator at 37° C. APP695 cDNA was subcloned into eukaryotic expression vector pcDNA3 (Invitrogen), allowing for a G418 (Invitrogen) selection of clones. This APP cDNA coding for the 695 amino acid long isoform was transfected into SKNSH-SYSY cells using the ethyleneimine polymer ExGen 500 (Euromedex) according to the manufacturer's instructions. The cells expressing APP (SKNSH-SYSY APP^WT) were selected by the addition of 200 μg/ml G418 in the cell medium. To quantify AR which released in the cell culture medium, the collected medium was spun at 200×g to eliminate the cell debris. The concentrations of secreted Aâ1-40 and Aβ1-42 were determined using the Human Aβ (1-40) Assay Kit (IBL) or the INNOTEST™ beta-Amyloid (1-42) ELISA Kit (Innogenetics), according to manufacturer's instructions. The results were expressed as IC50, i.e. the concentration able to decrease to 50% the basal amount of secreted Aβ peptide 1-40 and 1-42.

CTFα [1] = experiment: In vivo acute treatment, CTFα in brain tissue; design: species or system C57Bl6 mice; conditions: acute p.o. 24 h
Experimental: Female C57Bl6 mice of 4 month-old were treated p.o. (gavage) with either vehicle (control) or drug at 3; 6; 12.5 and 25 mg/kg (n=6 per group) for 24 h. The product was administered with a disposable Rodent Feeding Tube ECIMED Ref#V0104030 (4 mm×30 mm). After 24 h, mice were sacrificed and their troncal blood was collected and stored at 4° C. Brains were immediately removed to dissect the Frontal Cortex, the Cortex around the Hippocampus and the Hippocampus. These areas were stored at −80° C. until use. Blood was then centrifuged at 2100×g for 5 min. Resulting plasma was used to quantify the circulating drug and brain tissues were used for biochemical determinations (PFC: prefrontal cortex and HIP: hippocampus).

secreted Aβ1-40 = experiment: Aβ1-40 secretion by APP-transfected neuroblastoma cells (ELISA); type: cell-based; conditions: Homo sapiens, Neuroblastoma cell; SKNSH-SYSY APPWT cells; concentration decreasing secreted Aβ1-40 to 50% of basal amount
Experimental: as §1, §2

CTFα [2] = experiment: Quantification of APP-CTFα by Western blot in SY5Y-APPWT cells; type: cell-based, Human; conditions: compared to a control with a value of 100
Experimental: (§3) Quantifications of APP-CTFs and AICD
(§4) After treatment, SY5Y-APP^WT cells were scrapped and lysed in 1× Lysis Buffer (250 mM NaCl, 50 mM Tris, pH 8.8, 5 mM EDTA, 2.5% Triton X-100, 1% Deoxycholate, 0.1% SDS). For the Western blotting, an equal amount of total proteins (20 μg/lane) was loaded on a 16.5% Tris-Tricine or 8-16% Tris-Glycine polyacrylamide gel.
(§5) SDS-polyacrylamide gel electrophoresis (PAGE) was performed using the Criterion™ Tris-Tricine-precast or Bis-Tris-precast criterion gels (Bio-Rad Bioresearch division). Proteins were transferred to a […] nitrocellulose membrane (Hybond, Amersham Biosciences) at 2.5 mA/cm2 per gel using the Criterion™ Blotter system (Amersham Biosciences), according to the manufacturer's instructions. Proteins were reversibly stained with Ponceau Red in order to check the quality of the transfer of protein. The membranes were blocked in 25 mM Tris-HCl pH 8.0, 150 mM NaCl, 0.1% Tween-20 (v/v) and 5% (w/v) of skimmed milk for 30 min. Membranes were incubated overnight at 4° C. with appropriate dilution of the primary antibodies, and were incubated for 1 h at room temperature with secondary antibody. […] Quantifications were calculated with Image J software (NIH) and the data were collected using Excel Software (Microsoft). The loading variations between Western blot lanes were normalized according to the tubulin signal. Quantification of CTFα and AICD were compared to control conditions (considered as 100 in arbitrary units) and are presented for two concentrations of the drug: 1 and 10 μM.

[3] = target: T1, HIS-tagged valosin-containing protein/p97 (VCP/p97) (Homo sapiens, UniProt P55072); experiment: VCP interaction assay (competition with biotinylated probe 4.7); type: binding; conditions: compound 60 μM against biotinylated probe 4.7 20 μM
T1 construct: purchased TebuBio
T1 sequence (P55072 whole entry): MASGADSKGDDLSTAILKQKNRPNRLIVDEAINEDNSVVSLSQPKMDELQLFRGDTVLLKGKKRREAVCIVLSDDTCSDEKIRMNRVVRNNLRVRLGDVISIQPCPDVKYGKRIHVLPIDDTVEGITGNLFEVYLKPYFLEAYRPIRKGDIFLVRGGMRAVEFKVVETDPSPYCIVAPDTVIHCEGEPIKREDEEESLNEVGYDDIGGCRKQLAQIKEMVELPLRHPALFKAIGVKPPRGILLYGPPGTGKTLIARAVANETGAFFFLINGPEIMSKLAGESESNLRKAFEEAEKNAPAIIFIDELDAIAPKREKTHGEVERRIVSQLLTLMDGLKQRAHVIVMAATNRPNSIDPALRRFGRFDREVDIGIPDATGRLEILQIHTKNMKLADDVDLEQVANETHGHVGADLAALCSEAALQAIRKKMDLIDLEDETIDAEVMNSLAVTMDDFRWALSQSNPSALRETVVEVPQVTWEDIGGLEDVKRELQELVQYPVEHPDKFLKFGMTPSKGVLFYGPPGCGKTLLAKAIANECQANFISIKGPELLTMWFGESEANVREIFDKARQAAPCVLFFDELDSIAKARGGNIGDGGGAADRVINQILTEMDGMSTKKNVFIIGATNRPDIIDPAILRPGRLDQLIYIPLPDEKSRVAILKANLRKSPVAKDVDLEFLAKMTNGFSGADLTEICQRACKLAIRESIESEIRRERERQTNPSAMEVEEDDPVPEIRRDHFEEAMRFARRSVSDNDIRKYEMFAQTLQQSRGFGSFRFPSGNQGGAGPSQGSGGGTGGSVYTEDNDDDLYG
Experimental: Physical interaction between HIS-tagged valosin-containing protein/p97 (VCP/p97) (TebuBio) and biotinylated probe 4.7 was investigated by Enzyme-Linked Assay (ELA) based on HIS-Select® High Sensitivity Nickel coated plates, used following manufacturer's recommendations (Sigma Aldrich). Other chemical compounds were tested in competition with the biotinylated probe 4.7 in this system. Briefly, nickel beads were incubated overnight at 4° C. with 2% casein blocking solution. After a three-time rinse with wash buffer (0.05% Tween20 in phosphate buffer saline), HIS-tagged VCP/p97 protein (5 μg/ml in PBS) was incubated with nickel beads for 90 min at 25° C. Then, the plate was washed three times. Chemical compounds (60 μM) were incubated 10 min at 25° C. before addition of biotinylated probe 4.7 (20 μM) 30 min at 25° C. After five washes, streptavidin-peroxidase (2 μg/ml) was added during 1 h at 25° C., followed by the peroxidase substrate addition 30 min at RT. Reaction was stopped with 0.5M H2SO4 solution and the optical density was read at 450 nm using a microplate reader (VICTOR X4 Wallac, 2030-0040, PerkinElmer). Competition efficiency was quantified by the loss of signal compared to the control condition.

AICD = experiment: Quantification of AICD by Western blot in SY5Y-APPWT cells; type: cell-based, Human; conditions: compared to a control with a value of 100
Experimental: as §3, §4, §5

Q: What does the source list for `CC(C)CN(CCCN1CCN(CCCN2CCc3[nH]c4ccc(F)cc4c3C2)CC1)CC(C)C` [Compound 3.1d, N,N-diisobutyl-3-(4-(3-(8-fluoro-1,3,4,5-tetrahydro-1H-pyrido[4,3-b]indol-2-yl)propyl)piperazin-1-yl)propylamine]?
A: IC50 (secreted Aβ1-42): 2100 nM; HIP CTFα (6-12.5 mg/kg), first line (CTFα [1]; hippocampus, 6 mg/kg (first of the two doses in the head)): 110; HIP CTFα (6-12.5 mg/kg), second line (CTFα [1]; hippocampus, 12.5 mg/kg (second of the two doses in the head)): 115; PFC CTFα (6-12.5 mg/kg), first line (CTFα [1]; prefrontal cortex, 6 mg/kg (first of the two doses in the head)): 90; PFC CTFα (6-12.5 mg/kg), second line (CTFα [1]; prefrontal cortex, 12.5 mg/kg (second of the two doses in the head)): 90; IC50 (secreted Aβ1-40): 1200 nM; CTFα (10 μM) (CTFα [2]): 1011 arbitrary units; VCP (competition efficiency, loss of signal compared to the control) [3]: 96%; AICD (10 μM) (AICD): 84225 arbitrary units
